Experimental data reported in patent publication US5945436A, “Pyridylmethyl nitriles, amides and thioamides useful as fungicides” (Uniroyal Chemical Company, Inc., priority 1997, dated 1999).

Experiments:
Pyricularia oryzae = assay: whole plant or invertebrate; type: in vivo; conditions: for pest or weed control at 1000 µg/mL: Pyricularia oryzae, in Hordeum vulgare, foliar, 216 h, read-out: Percent Reduction of Disease, PYR ORY, barley, foliar, 1,000 mg/l; for Percent Reduction of Disease, PYR ORY: barley, foliar, 1,000 mg/l
Helminthosporium sativum = assay: Barley spot blotch, foliar treatment (HEL SAT); type: in vivo; conditions: foliar, 1,000 mg/l; for pest or weed control at 1000 µg/mL: Helminthosporium, foliar, 216 h, read-out: Percent Reduction of Disease, HEL SAT
Experimental: Compositions containing Compounds Nos. 1-81 were prepared by dissolving 0.24 grams of each of the compounds in 8 ml of acetone or other suitable inert solvent. Each of the resultant solutions was treated with 3 drops of TWEEN 20 (ethoxylated ethylene sorbitan monolaurate, a non-ionic surfactant)(I.C.I.), and water was added to form an emulsion. The degree of dilution with water was dictated by the desired concentration of the compound in the composition. The greater the quantity of water added, the lower the concentration of the compound in the composition, reported in milligrams per liter (mg/l) Ten plants of six day-old Barley (variety "Robust") were planted in each of a plurality of pots. Each pot was then either sprayed with one of the compositions of Example 9, at a concentration of 1,000 mg/l, or left unsprayed. The unsprayed plants were used as controls. An equal number of pots were sprayed and unsprayed. All plants, sprayed and unsprayed, were thereafter inoculated with spores of the blotch fungus Helminthosporium sativum. All inoculated plants were placed in a 99% humidity chamber for 24 hours and then placed in a greenhouse, maintained at a temperature of 21° C., for eight days. […] Percent control was computed and the results are summarized in Table II under the heading "HEL SAT".

[1] = tested on: Cercosporidium personatum; assay: Fungal germination and growth, treated disc on agar, scored (CER PER); type: cell-based; set-up: key: 100: Complete inhibition of germination and growth.; 80: Nearly complete inhibition but some growth.; 50: Partial inhibition of growth or, early complete inhibition but later growth begins.; 20: Some inhibition of growth, but not significant.; 0: No inhibition of growth; conditions: disc dipped in 500 mg/l, 29° C., numerical score 0-100, spore suspension
Description: Filter paper discs, each 11 mm. in diameter, were dipped in each of the test solutions. The discs were allowed to air dry to drive off the acetone solvent. A number of untreated discs were used as controls. The treated and untreated discs were then placed on agar plates and one of the following fungus species: Septoria nodorum (SEP NOD), Botrytis cinerea (BOT CIN), Fusarium oxysporum (FUS OXY), Pythium ultimum ([…]), Rhizoctonia solani (RHI SOL), Colletotrichum gossypii (COL GOS), and Scierotinia minor (SCL MIN), was added to the center of each disc in the form of a culture plug with the fungus mat in contact with the paper of the test disc. Cercosporidium personatum (CER PER), was added to discs as a spore suspension (20,000 spores/ml) to the disc (two drops of spore suspension per disc), rather than a mycelial culture plug. The plates were then incubated at 29° C. in an oven. In the case of the Cercosporidium personatum (CER PER) fungi, scoring was done on a numerical basis as follows: 100=Complete inhibition of germination and growth. 80=Nearly complete inhibition but some growth. 50=Partial inhibition of growth or, early complete inhibition but later growth begins. 20=Some inhibition of growth, but not significant. 0=No inhibition of growth. The results of all the above tests appear in Table III below under the headings "SEP NOD," "BOT CIN," "FUS OXY," "[…]" "COL GOS" and "CER PER".

Pythium ultimum = assay: Fungal growth inhibition, treated disc on agar (PYT ULT); type: cell-based; conditions: disc dipped in 500 mg/l, 29° C.; for inhibition at 500 µg/mL: Globisporangium ultimum, read-out: Percent Growth Inhibition, PYT ULT
Experimental: (§1) The treated and untreated discs were then placed on agar plates and one of the following fungus species: Septoria nodorum (SEP NOD), Botrytis cinerea (BOT CIN), Fusarium oxysporum (FUS OXY), Pythium ultimum (PYT ULT), Rhizoctonia solani (RHI SOL), Colletotrichum gossypii (COL GOS), and Scierotinia minor (SCL MIN), was added to the center of each disc in the form of a culture plug with the fungus mat in contact with the paper of the test disc. Cercosporidium personatum (CER PER), was added to discs as a spore suspension (20,000 spores/ml) to the disc (two drops of spore suspension per disc), rather than a mycelial culture plug. The plates were then incubated at 29° C. in an oven.
(§2) With the exception of the discs containing Cercosporidium personatum, the discs were evaluated by first measuring the radius from the center of the fungus colony on the treated discs and on the untreated discs. Percent growth inhibition of each of the compounds tested was determined as a function of the difference between the radius of the fungus colony on the treated disc versus the radius of the fungus colony on the untreated disc.

Scierotinia minor = assay: Fungal growth inhibition, treated disc on agar (SCL MIN); type: cell-based; conditions: disc dipped in 500 mg/l, 29° C.; for inhibition at 500 µg/mL: read-out: Percent Growth Inhibition, SCL MIN
Botrytis cinerea = assay: Fungal growth inhibition, treated disc on agar (BOT CIN); type: cell-based; conditions: disc dipped in 500 mg/l, 29° C.; for inhibition at 500 µg/mL: Botrytis cinerea, read-out: Percent Growth Inhibition, BOT CIN
Colletotrichum gossypii = assay: Fungal growth inhibition, treated disc on agar (COL GOS); type: cell-based; conditions: disc dipped in 500 mg/l, 29° C.; for inhibition at 500 µg/mL: Colletotrichum gossypii, read-out: Percent Growth Inhibition, COL GOS
Experimental: as §1, §2

| SMILES | pest or weed control at 1000 µg/mL (Pyricularia oryzae) [%] | pest or weed control at 1000 µg/mL (Helminthosporium sativum) [%] | CER PER inhibition score [1] | Percent Growth Inhibition, PYT ULT (Pythium ultimum) [%] | Percent Growth Inhibition, SCL MIN (Scierotinia minor) [%] | inhibition at 500 µg/mL (Botrytis cinerea) [%] | inhibition at 500 µg/mL (Colletotrichum gossypii) [%] | inhibition at 500 µg/mL (Pythium ultimum) [%] | inhibition at 500 µg/mL (Scierotinia minor) [%] | Percent Reduction of Disease, PYR ORY (Pyricularia oryzae) [%] | Percent Growth Inhibition, BOT CIN (Botrytis cinerea) [%] | Percent Growth Inhibition, COL GOS (Colletotrichum gossypii) [%] | Percent Reduction of Disease, HEL SAT (Helminthosporium sativum) [%] |
| --- | --- | --- | --- | --- | --- | --- | --- | --- | --- | --- | --- | --- | --- |
| CCCCC(C#N)(CCc1ccc(OCC)cc1)c1cccnc1 (stereo not shown) [Compound 35] | 55 | 100 | 0 | 0 | 88 | 91 | 97 |  |  |  |  |  |  |
| CCCCOc1ccc(CCC(C#N)(CCCC)c2cccnc2)cc1 (stereo not shown) [Compound 54] | 90 | 100 | 0 |  |  | 100 | 100 | 5 | 100 |  |  |  |  |
| CCCCCCC(C#N)(CCc1ccc(OC)cc1)c1cccnc1 (stereo not shown) [Compound 36] | 90 | 100 | 0 |  |  | 45 | 0 | 75 | 100 |  |  |  |  |
| CCCC(C#N)(CCCc1ccccc1Cl)c1cccnc1 (stereo not drawn) [Compound 15, 2-chloro-α-propyl-(3-pyridinyl)benzene pentanenitrile] | 85 | 100 | 100 |  |  | 30 | 93 | 83 | 100 |  |  |  |  |
| C=C(Cl)CC(C#N)(CCc1ccc(F)cc1)c1cccnc1 (stereo not shown) [Compound 65] |  | 100 | 0 |  |  | 100 | 100 | 100 | 100 |  |  |  |  |
| CCCCC(C#N)(CCc1ccc(F)cc1)c1cccnc1 (stereo not shown) [Compound 11] | 85 | 100 | 0 |  |  | 100 | 100 | 40 | 98 |  |  |  |  |
| CCCC(C#N)(CCc1ccccc1)c1ccncc1 (stereo not shown) [Compound 25] | 0 | 0 | 0 |  |  | 55 | 72 | 0 | 86 |  |  |  |  |
| C#CCC(C#N)(CCc1ccccc1)c1cccnc1 (stereo not shown) [Compound 4] | 50 | 0 | 100 |  |  | 94 | 100 | 100 | 98 |  |  |  |  |
| C=CCC(C#N)(CCc1ccc(C)cc1)c1cccnc1 (stereo not shown) [Compound 33] | 85 | 100 | 0 |  |  | 98 | 100 | 50 | 100 |  |  |  |  |
| C=CCC(C#N)(Cc1ccc(C(C)(C)C)cc1)c1cccnc1 (stereo not shown) [Compound 18] | 85 | 100 | 0 |  |  | 10 | 10 | 40 | 10 |  |  |  |  |
| CC(C)CCC(C#N)(CCc1ccc(F)cc1)c1cccnc1 (stereo not shown) [Compound 49] |  | 100 | 0 | 76 | 100 |  |  |  |  | 17 | 100 | 100 |  |
| Cc1ccc(CCC(C#N)(CCC(F)(F)F)c2cccnc2)cc1 (stereo not shown) [Compound 80] | 78 | 100 | 0 |  |  | 9 | 59 | 7 | 5 |  |  |  |  |
| N#CC(CCc1ccc(F)cc1)(CC(F)(F)F)c1cccnc1 (stereo not shown) [Compound 52] | 90 | 100 | 100 |  |  | 100 | 100 | 0 | 100 |  |  |  |  |
| CC=CCC(C#N)(CCc1ccc(F)cc1)c1cccnc1 (stereo not shown) [Compound 59] | 85 | 90 | 0 |  |  | 100 | 100 | 5 | 70 |  |  |  |  |
| CCCC(C#N)(CCc1ccccc1C(F)(F)F)c1cccnc1 (stereo not shown) [Compound 72] | 0 | 83 | 0 |  |  | 100 | 100 | 71 | 100 |  |  |  |  |
| N#CC(CCc1ccccc1)(CCc1ccccc1)c1cccnc1 [A, reference compound] | 10 | 60 | 0 |  |  | 0 | 25 | 10 | 10 |  |  |  |  |
| C=CCC(C#N)(CCc1ccc(OC)cc1)c1ccccn1 (stereo not shown) [Compound 28] |  |  | 100 | 10 | 96 |  |  |  |  | 85 | 98 | 100 | 100 |
| CCCCCC(C#N)(CCc1ccccc1)c1cccnc1 (stereo not shown) [Compound 3] | 100 | 100 | 100 |  |  | 100 | 97 | 5 | 100 |  |  |  |  |
| CCCCC(C#N)(CCc1ccc(OC)cc1)c1ccccn1 (stereo not shown) [Compound 31] |  |  | 0 | 93 | 75 |  |  |  |  | 0 | 89 | 70 | 90 |
| COc1ccc(CCC(C#N)(CC=C(C)C)c2cccnc2)cc1 (stereo not shown) [Compound 48] | 33 | 100 | 50 |  |  | 100 | 100 | 53 | 100 |  |  |  |  |
| CCCCCCCC(C#N)(CCc1ccccc1)c1cccnc1 (stereo not shown) [Compound 2] | 45 | 80 | 100 |  |  | 60 | 60 | 0 | 100 |  |  |  |  |
| Cc1ccc(CCC(C#N)(CCCF)c2cccnc2)cc1 (stereo not shown) [Compound 81] |  |  | 0 |  |  | 30 | 20 | 20 | 0 |  |  |  |  |
| CC(C)(C)c1ccc(CC(C#N)(Cc2ccc(C(C)(C)C)cc2)c2cccnc2)cc1 [B, reference compound] |  | 0 | 0 |  |  | 0 | 0 | 15 | 60 |  |  |  |  |
